Data set [1] concerns gastrointestinal bleeding. Description: Guaiac test on fecal pellets after indomethacin. Format: in vivo, C57BL/6J mice. The conditions noted are these: 10 mg/kg oral, following morning. As to the method:
For indomethacin experiments, animals were inoculated with blood sensor bacteria and fecal pellets were collected 6 hours later for luminescence analysis and CFU enumeration. Indomethacin (Sigma) solution was prepared by dissolving the compound in absolute ethanol to a concentration of 20 mg/mL. Immediately prior to mouse gavage, the indomethacin stock solution was diluted to 1.25 mg/mL in PBS and 0.2 mL of dilute indomethacin solution was administered to each animal (10 mg/kg). Preparation of indomethacin solution using this method was essential to ensure reliable and reproducible induction of gastrointestinal bleeding. The following morning, gastrointestinal bleeding was confirmed by performing a guaiac test (Hemoccult, Beckman Coulter) on fecal pellets from each animal. […] Subsequently, mice were again administered blood sensor bacteria and fecal pellets were collected 6 hours later for luminescence analysis and CFU enumeration.

For data set [2], the system named is PL(HrtO). As to the kind of experiment: HrtR-mediated repression of PL(HrtO)-luxCDABE luminescence. Format: cell-based, E. coli MG1655. The conditions noted are these: co-transformation of PL(HrtO)-luxCDABE with constitutively expressing HrtR construct. As to the method: For genetic circuit characterization, overnight cultures were diluted 1:100 in fresh LB and incubated with shaking at 37° C. for 2 hours. Cultures were removed from the incubator and 200 μL of culture was transferred to a 96-well plate containing various concentrations of inducer. The plate was returned to a shaking incubator at 37° C. Following 2 hours of incubation, luminescence was read using a BioTek Synergy H1 Hybrid Reader using a […] integration time and a sensitivity of 135. Luminescence values, measured in relative luminescence units (RLUs), were normalized by the optical density of the culture measured at 600 nm. For in vitro kinetic studies, subcultured cells were mixed with inducer in a 96-well plate and immediately placed in the plate reader set at 37° C. without shaking. Luminescence and absorbance was read at 5 minute intervals.

Turning to `COc1ccc2c(c1)c(CC(=O)O)c(C)n2C(=O)c1ccc(Cl)cc1` [indomethacin], in data set [1], the “guaiac test (gastrointestinal bleeding)” value is “guaiac positive”.

B1: HrtR: heme-regulated TetR-family transcriptional repressor from Lactococcus lactis (protein)
chain: MPKSTYFSLSDEKRKRVYDACLLEFQTHSFHEAKIMHIVKALDIPRGSFYQYFEDLKDSYYYILSQETVEIHDLFFNLLKEYPLEVALNKYKYLLLENLVNSPQYNLYKYRFLDWTYELERDWKPKGEVTVPARELDNPISQVLKSVIHNLVYRMFSENWDEQKFIETYDKEIKLLTEGLLNYVTESKK
modifications: Heme-responsive transcriptional repressor
notes: heme-regulated TetR-family transcriptional repressor from Lactococcus lactis
For B1, in data set [2], the reduction in luminescence amounted to 4.4 fold.
